In ChEMBL document CHEMBL3621142, “Discovery and Evaluation of Clinical Candidate AZD3759, a Potent, Oral Active, Central Nervous System-Penetrant, Epidermal Growth Factor Receptor Tyrosine Kinase Inhibitor” (J Med Chem, 2015):
Active and inactive are the calls of the source. The calls are words filed in the database; no cut-off is given here.

Legend:
[1] = Elimination half life in Han Wistar rat at 1 mg/kg, iv; format: ADME, organism-based; details: Han Wistar, in vivo, read-out: beta t1/2 (converted)
[2] = Permeability from apical to basolateral side in MDCK2-MDR1 cells; format: ADME, cell-based, Canis lupus familiaris, MDCK-II; details: dog, MDCK-MDR1
[3] = Antiproliferative against human H3255 cells expressing EGFR L858R mutant after 72 hrs by MTS assay; format: functional, cell-based; details: NCI-H3255, 72 h
PC-9 [4] = assay: Antitumor activity against human PC9 cells expressing EGFR exon19 deletion mutant xenografted in mouse assessed as tumor regression at 15 mg/kg, qd measured after 4 weeks; format: functional, organism-based
[5] = Elimination half life in Han Wistar rat at 2 mg/kg, po; format: ADME, organism-based; details: in vivo, read-out: beta t1/2 (converted)
[6] = AUC(0 to 24 hrs) in beagle dog at 2 mg/kg, po; format: ADME, organism-based, Canis lupus familiaris; design: dose 2 mg/kg, time < 24 hr, route oral; details: in vivo
[7] = AUC(0 to 24 hrs) in beagle dog at 1 mg/kg, iv; format: ADME, organism-based, Canis lupus familiaris; design: dose 1 mg/kg, time < 24 hr, route intravenous; details: in vivo
[8] = Ratio of unbound AUC (0 to 7 hrs) in CSF to blood of Han Wistar rat at 2 mg/kg, po by LC-MS/MS analysis; format: ADME, organism-based; details: Han Wistar, CSF and blood
Cytochrome P450 3A5 = Cytochrome P450 3A5 (Homo sapiens, UniProt P20815); assay: Inhibition of CYP3A5 (unknown origin); format: ADME
[9] = molecular target: Tyrosine-protein kinase Fyn (Homo sapiens) (UniProt P06241); assay: Inhibition of recombinant Fyn (unknown origin) at 1 uM after 40 mins by scintillation counting analysis in presence of [gamma33P]-ATP
[10] = molecular target: T1, Vascular endothelial growth factor receptor 2 (Homo sapiens, UniProt P35968); assay: Inhibition of recombinant KDR (unknown origin) at 1 uM after 40 mins by scintillation counting analysis in presence of [gamma33P]-ATP
Cytochrome P450 2B6 = Cytochrome P450 2B6 (Homo sapiens, UniProt P20813); assay: Inhibition of CYP2B6 (unknown origin); format: ADME
[11] = molecular target: T2, Proto-oncogene tyrosine-protein kinase Src (Homo sapiens, UniProt P12931); assay: Inhibition of recombinant Src (unknown origin) at 1 uM after 40 mins by scintillation counting analysis in presence of [gamma33P]-ATP
PC-9 [12] = assay: Antitumor activity against human PC9 cells expressing EGFR exon19 deletion mutant xenografted in mouse assessed as decrease in tumor area in brain at 7.5 mg/kg, qd; format: functional, organism-based
[13] = Tmax in beagle dog at 2 mg/kg, po; format: ADME, organism-based, Canis lupus familiaris; details: in vivo
[14] = molecular target: T1, Vascular endothelial growth factor receptor 2; assay: Inhibition of recombinant KDR (unknown origin) after 40 mins by scintillation counting analysis in presence of [gamma33P]-ATP
[15] = Cmax in beagle dog at 2 mg/kg, po; format: ADME, organism-based, Canis lupus familiaris; design: dose 2 mg/kg, route oral; details: in vivo
Cytochrome P450 3A4 = Cytochrome P450 3A4 (Homo sapiens, UniProt P08684); assay: Inhibition of CYP3A4 (unknown origin); format: ADME
[16] = Elimination half life in beagle dog at 2 mg/kg, po; format: ADME, organism-based, Canis lupus familiaris; details: in vivo, read-out: beta t1/2 (converted)
PC-9 [17] = assay: Antitumor activity against human PC9 cells expressing EGFR exon19 deletion mutant xenografted in mouse assessed as decrease in tumor area in brain at 15 mg/kg, qd; format: functional, organism-based
[18] = Elimination half life in beagle dog at 1 mg/kg, iv; format: ADME, organism-based, Canis lupus familiaris; details: in vivo, read-out: beta t1/2 (converted)
[19] = Ratio of unbound AUC (0 to 7 hrs) in brain to blood of Han Wistar rat at 2 mg/kg, po by LC-MS/MS analysis; format: ADME, organism-based; details: Han Wistar, brain and blood, read-out: K(p,uu,brain)
[20] = molecular target: Ephrin type-B receptor 4 (Homo sapiens) (UniProt P54760); assay: Inhibition of recombinant EpHB4 (unknown origin) at 1 uM after 40 mins by scintillation counting analysis in presence of [gamma33P]-ATP
Hepatocyte = assay: Intrinsic clearance in human hepatocytes; format: ADME, cell-based
[21] = Ratio of fraction unbound in brain to plasma of cynomolgus monkey at 150 MBq, iv by positron emission tomography; format: ADME, organism-based, Macaca fascicularis
[22] = Fraction unbound in Han Wistar rat brain at 5 uM by equilibrium dialysis method; format: ADME, tissue-based; details: Han Wistar, brain
[23] = molecular target: Tyrosine-protein kinase Lyn (Homo sapiens) (UniProt P07948); assay: Inhibition of recombinant Lyn (unknown origin) at 1 uM after 40 mins by scintillation counting analysis in presence of [gamma33P]-ATP
Mus musculus [24] = assay: Toxicity in PC9 cells expressing EGFR exon19 deletion mutant xenografted mouse assessed as loss of body weight at 7.5 mg/kg, qd; format: organism-based, PC-9; details: in vivo
Cytochrome P450 1A2 = Cytochrome P450 1A2 (Homo sapiens, UniProt P05177); assay: Inhibition of CYP1A2 (unknown origin); format: ADME
Cytochrome P450 2D6 = Cytochrome P450 2D6 (Homo sapiens, UniProt P10635); assay: Inhibition of CYP2D6 (unknown origin); format: ADME
[25] = Fraction unbound in Han Wistar rat blood at 5 uM by equilibrium dialysis method; format: ADME, tissue-based; details: Han Wistar
[26] = AUC (0 to 7 hrs) in Han Wistar rat CSF at 2 mg/kg, po by LC-MS/MS analysis; format: ADME, organism-based, Cerebrospinal fluid; design: time < 7 hr, dose 2 mg/kg, route oral; details: Han Wistar, CSF
[27] = Antiproliferative against human PC9 cells expressing EGFR exon19 deletion mutant after 72 hrs by MTS assay; format: functional, cell-based; details: PC-9, 72 h
PC-9 [28] = assay: Antitumor activity against human PC9 cells expressing EGFR exon19 deletion mutant xenografted in mouse assessed as modulation of pEGFR expression in brain at 15 mg/kg administered as single dose measured after 1 hr by immunohistochemical analysis; format: functional, organism-based
Cytochrome P450 2C8 = Cytochrome P450 2C8 (Homo sapiens, UniProt P10632); assay: Inhibition of CYP2C8 (unknown origin); format: ADME
[29] = Oral bioavailability in Han Wistar rat at 2 mg/kg; format: ADME, organism-based; details: Han Wistar, in vivo
PC-9 [30] = assay: Antitumor activity against human PC9 cells expressing EGFR exon19 deletion mutant xenografted in mouse measured after 4 weeks; format: functional, cell-based
D(2) dopamine receptor = D(2) dopamine receptor (Homo sapiens, UniProt P14416); assay: Inhibition of recombinant D2 receptor (unknown origin)
Cytochrome P450 2C9 = Cytochrome P450 2C9 (Homo sapiens, UniProt P11712); assay: Inhibition of CYP2C9 (unknown origin); format: ADME
Mus musculus [31] = assay: Toxicity in PC9 cells expressing EGFR exon19 deletion mutant xenografted mouse assessed as loss of body weight at 15 mg/kg, qd; format: organism-based, PC-9; details: in vivo
[32] = Volume of distribution at steady state in beagle dog at 1 mg/kg, iv; format: ADME, organism-based, Canis lupus familiaris; details: in vivo, read-out: Vdss
[33] = AUC(0 to 24 hrs) in Han Wistar rat at 2 mg/kg, po; format: ADME, organism-based; design: dose 2 mg/kg, time < 24 hr, route oral; details: Han Wistar, in vivo
[34] = molecular target: Tyrosine-protein kinase Yes (Homo sapiens) (UniProt P07947); assay: Inhibition of recombinant Yes (unknown origin) at 1 uM after 40 mins by scintillation counting analysis in presence of [gamma33P]-ATP
[35] = Oral bioavailability in beagle dog at 2 mg/kg; format: ADME, organism-based, Canis lupus familiaris; details: in vivo
[36] = molecular target: Tyrosine-protein kinase Lck (Homo sapiens) (UniProt P06239); assay: Inhibition of recombinant Lck (unknown origin) at 1 uM after 40 mins by scintillation counting analysis in presence of [gamma33P]-ATP
[37] = Cmax in Han Wistar rat at 2 mg/kg, po at 1 hr; format: ADME, organism-based; design: dose 2 mg/kg, route oral; details: in vivo
[38] = molecular target: Vascular endothelial growth factor receptor 1 (Homo sapiens) (UniProt P17948); assay: Inhibition of recombinant Flt (unknown origin) at 1 uM after 40 mins by scintillation counting analysis in presence of [gamma33P]-ATP
[39] = Clearance in Han Wistar rat at 1 mg/kg, iv; format: ADME, organism-based; details: in vivo
[40] = Antitumor activity against human PC9 cells expressing EGFR exon19 deletion mutant xenografted in mouse assessed as tumor growth inhibition at 7.5 mg/kg, qd measured after 4 weeks; format: functional; details: PC-9, 672 h
[41] = molecular target: T2, Proto-oncogene tyrosine-protein kinase Src; assay: Inhibition of recombinant Src (unknown origin) after 40 mins by scintillation counting analysis in presence of [gamma33P]-ATP
[42] = AUC (0 to 7 hrs) in Han Wistar rat brain at 2 mg/kg, po by LC-MS/MS analysis; format: ADME, organism-based; design: dose 2 mg/kg, time < 7 hr, route oral; details: Han Wistar, brain
NCI-H838 = assay: Antiproliferative against human NCI-H838 cells expressing EGFR wild-type after 72 hrs by MTS assay; format: functional, cell-based; details: NCI-H838, 72 h
Cytochrome P450 2C19 = Cytochrome P450 2C19 (Homo sapiens, UniProt P33261); assay: Inhibition of CYP2C19 (unknown origin); format: ADME
[43] = AUC (0 to 7 hrs) in Han Wistar rat blood at 2 mg/kg, po by LC-MS/MS analysis; format: ADME, organism-based; design: dose 2 mg/kg, time < 7 hr, route oral; details: Han Wistar, blood
[44] = Clearance in beagle dog at 1 mg/kg, iv; format: ADME, organism-based, Canis lupus familiaris; details: in vivo
[45] = Volume of distribution at steady state in Han Wistar rat at 1 mg/kg, iv; format: ADME, organism-based; details: Han Wistar, in vivo, read-out: Vdss
[46] = Ratio of fraction unbound in brain to plasma of cynomolgus monkey at 155 MBq, iv by positron emission tomography; format: ADME, organism-based, Macaca fascicularis

T1 sequence (P35968 whole entry): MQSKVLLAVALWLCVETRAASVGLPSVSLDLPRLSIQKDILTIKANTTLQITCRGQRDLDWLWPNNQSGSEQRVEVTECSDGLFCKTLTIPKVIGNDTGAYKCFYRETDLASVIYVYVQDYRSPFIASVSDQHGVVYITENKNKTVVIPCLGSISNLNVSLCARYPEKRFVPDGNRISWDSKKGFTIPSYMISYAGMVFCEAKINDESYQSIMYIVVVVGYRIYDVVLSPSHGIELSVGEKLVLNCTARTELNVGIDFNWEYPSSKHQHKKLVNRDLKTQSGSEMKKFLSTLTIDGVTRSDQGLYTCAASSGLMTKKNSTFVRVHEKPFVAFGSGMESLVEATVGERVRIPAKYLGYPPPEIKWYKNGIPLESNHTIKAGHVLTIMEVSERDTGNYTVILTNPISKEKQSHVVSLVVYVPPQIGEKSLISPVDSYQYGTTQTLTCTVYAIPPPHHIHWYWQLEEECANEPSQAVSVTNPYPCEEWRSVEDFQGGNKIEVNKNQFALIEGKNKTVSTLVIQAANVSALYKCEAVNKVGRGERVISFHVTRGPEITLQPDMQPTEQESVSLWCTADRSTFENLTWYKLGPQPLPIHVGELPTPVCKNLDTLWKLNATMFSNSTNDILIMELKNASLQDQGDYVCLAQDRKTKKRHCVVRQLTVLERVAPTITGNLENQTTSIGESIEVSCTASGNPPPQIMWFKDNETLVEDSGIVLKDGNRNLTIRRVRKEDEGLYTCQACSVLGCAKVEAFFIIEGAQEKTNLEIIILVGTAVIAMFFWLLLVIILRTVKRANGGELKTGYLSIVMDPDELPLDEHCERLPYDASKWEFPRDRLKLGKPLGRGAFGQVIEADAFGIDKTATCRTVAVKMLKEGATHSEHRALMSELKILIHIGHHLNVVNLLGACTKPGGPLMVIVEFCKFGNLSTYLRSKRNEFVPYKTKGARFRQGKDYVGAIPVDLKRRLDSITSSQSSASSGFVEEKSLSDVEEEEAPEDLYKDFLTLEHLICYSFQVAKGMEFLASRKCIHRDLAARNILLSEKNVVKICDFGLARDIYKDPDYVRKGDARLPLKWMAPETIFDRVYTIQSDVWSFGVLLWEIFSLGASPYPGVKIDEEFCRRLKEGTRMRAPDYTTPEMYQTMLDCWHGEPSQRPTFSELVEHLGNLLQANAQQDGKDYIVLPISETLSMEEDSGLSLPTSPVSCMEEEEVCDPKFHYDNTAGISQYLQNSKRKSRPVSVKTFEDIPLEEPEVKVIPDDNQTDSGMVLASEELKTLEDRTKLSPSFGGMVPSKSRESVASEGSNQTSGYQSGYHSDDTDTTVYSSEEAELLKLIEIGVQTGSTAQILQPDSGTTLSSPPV
T2 sequence (P12931 2-536 limits assumed): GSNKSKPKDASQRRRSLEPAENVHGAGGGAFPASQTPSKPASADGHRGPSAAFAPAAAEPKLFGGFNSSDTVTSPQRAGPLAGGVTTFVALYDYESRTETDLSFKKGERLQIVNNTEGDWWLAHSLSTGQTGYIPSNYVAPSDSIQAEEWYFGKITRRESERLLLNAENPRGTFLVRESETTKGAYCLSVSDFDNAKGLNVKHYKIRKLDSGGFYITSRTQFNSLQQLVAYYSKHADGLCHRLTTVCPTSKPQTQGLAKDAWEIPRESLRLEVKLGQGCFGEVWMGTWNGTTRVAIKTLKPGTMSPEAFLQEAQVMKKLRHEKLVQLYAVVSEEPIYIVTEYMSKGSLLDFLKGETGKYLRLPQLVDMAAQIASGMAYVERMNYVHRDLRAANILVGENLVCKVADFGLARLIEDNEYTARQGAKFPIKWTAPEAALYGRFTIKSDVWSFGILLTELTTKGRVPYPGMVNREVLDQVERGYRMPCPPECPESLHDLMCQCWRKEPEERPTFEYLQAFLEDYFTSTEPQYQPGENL
Sequence of Cytochrome P450 2D6 (P10635 whole entry): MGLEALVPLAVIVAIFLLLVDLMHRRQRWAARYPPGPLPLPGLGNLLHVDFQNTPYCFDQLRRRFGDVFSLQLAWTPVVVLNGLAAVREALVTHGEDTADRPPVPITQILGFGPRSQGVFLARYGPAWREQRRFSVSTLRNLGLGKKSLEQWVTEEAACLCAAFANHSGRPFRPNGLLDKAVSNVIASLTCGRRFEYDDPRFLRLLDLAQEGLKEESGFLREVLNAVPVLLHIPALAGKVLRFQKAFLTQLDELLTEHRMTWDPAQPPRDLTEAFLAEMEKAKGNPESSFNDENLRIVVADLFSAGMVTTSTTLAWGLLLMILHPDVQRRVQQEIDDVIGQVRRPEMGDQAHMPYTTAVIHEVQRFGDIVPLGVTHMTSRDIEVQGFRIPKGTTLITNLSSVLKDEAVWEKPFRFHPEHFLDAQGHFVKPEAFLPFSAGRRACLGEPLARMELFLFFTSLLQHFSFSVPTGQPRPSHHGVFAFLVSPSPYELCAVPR
Sequence of Cytochrome P450 1A2 (P05177 whole entry): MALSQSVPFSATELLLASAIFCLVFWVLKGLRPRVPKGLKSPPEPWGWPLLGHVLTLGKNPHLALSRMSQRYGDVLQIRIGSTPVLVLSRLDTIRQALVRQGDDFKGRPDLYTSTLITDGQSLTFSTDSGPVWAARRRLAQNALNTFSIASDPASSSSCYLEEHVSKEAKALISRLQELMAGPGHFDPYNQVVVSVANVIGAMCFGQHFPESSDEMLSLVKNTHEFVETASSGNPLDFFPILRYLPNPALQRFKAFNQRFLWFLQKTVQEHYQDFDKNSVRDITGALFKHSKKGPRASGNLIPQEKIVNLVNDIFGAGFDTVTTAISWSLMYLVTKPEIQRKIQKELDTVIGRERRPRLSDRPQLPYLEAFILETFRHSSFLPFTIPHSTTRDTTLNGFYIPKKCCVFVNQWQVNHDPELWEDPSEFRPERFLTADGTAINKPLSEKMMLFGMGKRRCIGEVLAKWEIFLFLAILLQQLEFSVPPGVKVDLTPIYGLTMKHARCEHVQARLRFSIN
Sequence of Cytochrome P450 2B6 (P20813 whole entry): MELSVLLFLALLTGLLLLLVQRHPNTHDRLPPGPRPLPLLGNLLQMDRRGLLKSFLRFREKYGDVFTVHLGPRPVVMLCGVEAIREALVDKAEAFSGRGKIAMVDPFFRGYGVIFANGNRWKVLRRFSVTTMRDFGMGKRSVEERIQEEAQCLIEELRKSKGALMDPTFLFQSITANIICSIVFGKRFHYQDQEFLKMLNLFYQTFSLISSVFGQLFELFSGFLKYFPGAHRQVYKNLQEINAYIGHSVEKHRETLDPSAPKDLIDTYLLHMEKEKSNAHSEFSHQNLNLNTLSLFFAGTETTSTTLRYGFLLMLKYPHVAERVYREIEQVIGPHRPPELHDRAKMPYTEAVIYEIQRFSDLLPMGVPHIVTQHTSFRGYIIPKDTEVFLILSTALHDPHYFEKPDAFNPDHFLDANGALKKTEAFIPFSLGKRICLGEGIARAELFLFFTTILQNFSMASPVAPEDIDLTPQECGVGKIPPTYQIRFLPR
Sequence of Cytochrome P450 3A4 (P08684 whole entry): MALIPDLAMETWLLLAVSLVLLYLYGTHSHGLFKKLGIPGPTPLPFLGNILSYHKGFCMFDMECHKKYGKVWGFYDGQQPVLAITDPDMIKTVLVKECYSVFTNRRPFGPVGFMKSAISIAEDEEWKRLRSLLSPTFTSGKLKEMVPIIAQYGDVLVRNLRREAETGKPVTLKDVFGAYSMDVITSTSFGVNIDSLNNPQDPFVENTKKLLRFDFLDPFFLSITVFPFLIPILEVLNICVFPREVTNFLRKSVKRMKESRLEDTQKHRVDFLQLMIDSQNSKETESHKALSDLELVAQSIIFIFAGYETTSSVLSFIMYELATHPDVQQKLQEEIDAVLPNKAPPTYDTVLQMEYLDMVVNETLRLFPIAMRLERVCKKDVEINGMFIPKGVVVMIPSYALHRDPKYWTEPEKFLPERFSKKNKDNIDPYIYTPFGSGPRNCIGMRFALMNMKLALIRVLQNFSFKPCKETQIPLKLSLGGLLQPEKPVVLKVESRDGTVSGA
Sequence of Ephrin type-B receptor 4 (Homo sapiens) (P54760 whole entry): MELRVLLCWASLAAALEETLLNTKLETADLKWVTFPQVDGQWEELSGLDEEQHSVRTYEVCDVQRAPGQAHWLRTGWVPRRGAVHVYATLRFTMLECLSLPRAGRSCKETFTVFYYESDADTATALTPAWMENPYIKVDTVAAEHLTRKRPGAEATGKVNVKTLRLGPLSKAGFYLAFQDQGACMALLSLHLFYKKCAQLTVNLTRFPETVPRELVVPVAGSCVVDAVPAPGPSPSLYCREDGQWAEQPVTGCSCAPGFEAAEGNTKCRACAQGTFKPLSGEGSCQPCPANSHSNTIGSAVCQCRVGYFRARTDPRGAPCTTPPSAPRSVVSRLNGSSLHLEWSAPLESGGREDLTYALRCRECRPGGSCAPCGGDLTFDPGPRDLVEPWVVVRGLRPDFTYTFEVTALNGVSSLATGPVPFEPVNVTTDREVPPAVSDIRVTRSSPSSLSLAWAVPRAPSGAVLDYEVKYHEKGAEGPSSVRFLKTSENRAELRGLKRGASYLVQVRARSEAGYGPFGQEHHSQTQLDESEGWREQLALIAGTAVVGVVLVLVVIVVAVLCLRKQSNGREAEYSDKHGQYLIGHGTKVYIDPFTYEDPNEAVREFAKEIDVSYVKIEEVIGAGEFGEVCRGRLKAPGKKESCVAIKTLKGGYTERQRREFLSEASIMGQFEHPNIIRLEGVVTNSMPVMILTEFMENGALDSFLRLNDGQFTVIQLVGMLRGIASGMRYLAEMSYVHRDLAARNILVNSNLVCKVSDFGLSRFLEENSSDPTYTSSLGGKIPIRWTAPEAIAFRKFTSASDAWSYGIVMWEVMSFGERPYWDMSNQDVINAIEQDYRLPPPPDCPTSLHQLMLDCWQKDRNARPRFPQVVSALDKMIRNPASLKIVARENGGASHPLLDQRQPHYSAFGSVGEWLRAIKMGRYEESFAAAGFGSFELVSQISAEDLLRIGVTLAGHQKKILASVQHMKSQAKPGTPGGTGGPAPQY

COc1cc2ncnc(Nc3cccc(Cl)c3F)c2cc1OC(=O)N1CCN(C)C[C@H]1C [AZD-3759]
half-life [1]: 4.1 h
Papp A→B [2]: 36 ×10⁻⁶ cm/s
IC50 [3]: 0.007 µM
Activity (PC-9 [4]): Active
half-life [5]: 4.3 h
AUC(0-t) at 24 h [6]: 4.62 µM·h
AUC(0-t) at 24 h [7]: 2.56 µM·h
Kp uu [8]: 1.3
IC50 (Cytochrome P450 3A5): > 50 µM
inhibition [9]: 58%
inhibition [10]: 62%
IC50 (Cytochrome P450 2B6): > 50 µM
inhibition [11]: 69%
inhibition (PC-9 [12]): Active
Tmax [13]: 0.5 h
IC50 [14]: 0.156 µM
Cmax [15]: 698 nM
IC50 (Cytochrome P450 3A4): > 50 µM
half-life [16]: 5.5 h
inhibition (PC-9 [17]): Active
half-life [18]: 6.2 h
Kp uu [19]: 1.3
inhibition [20]: 83%
CLH (Hepatocyte): 11.4 µL/min
BPR [21]: 0.5
fraction unbound at 5 µM [22]: 0.02
inhibition [23]: 74%
Activity (Mus musculus [24]): < 20%
IC50 (Cytochrome P450 1A2): > 50 µM
IC50 (Cytochrome P450 2D6): > 50 µM
fraction unbound at 5 µM [25]: 0.047
AUC(0-t) at 7 h [26]: 0.076 µM·h
IC50 [27]: 0.0077 µM
Activity (PC-9 [28]): Active
IC50 (Cytochrome P450 2C8): > 50 µM
bioavailability [29]: 91%
Activity (PC-9 [30]): Dose-dependent effect
IC50 (D(2) dopamine receptor): 0.797 µM
IC50 (Cytochrome P450 2C9): > 50 µM
Activity (Mus musculus [31]): < 20%
Vd [32]: 6.4 L/kg
AUC(0-t) at 24 h [33]: 3.8 µM·h
inhibition [34]: 87%
bioavailability [35]: 90.2%
inhibition [36]: 61%
Cmax [37]: 580 nM
inhibition [38]: 57%
clearance [39]: 17 mL/min/kg
inhibition in vivo at 7.5 mg/kg [40]: 78%
IC50 [41]: 0.622 µM
AUC(0-t) at 7 h [42]: 3.69 µM·h
IC50 (NCI-H838): 21.6 µM
IC50 (Cytochrome P450 2C19): > 50 µM
AUC(0-t) at 7 h [43]: 1.23 µM·h
clearance [44]: 14 mL/min/kg
Vd [45]: 5.2 L/kg
BPR [46]: 0.53
